# Measured values as given in US6288037A (BASF Aktiengesellschaft, priority 1996, dated 2001).
# Where a SMILES comes first, the peptide text is derived from it.
# Biological target: T1, N-His Ich-1 (Homo sapiens, UniProt P42575)
# T1 construct: contains Ich-1 amino acid residues 167-435, with an initiator and polyhistidine tag fused to the amino terminus; initiator (Met) + polyhistidine tag (N); made in house
# T1 sequence (P42575 184-333): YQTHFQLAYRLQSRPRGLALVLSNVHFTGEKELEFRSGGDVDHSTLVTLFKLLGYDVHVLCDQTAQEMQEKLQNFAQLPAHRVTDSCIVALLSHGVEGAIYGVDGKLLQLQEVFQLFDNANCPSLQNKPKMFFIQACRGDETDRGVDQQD
# T1 sequence (P42575 334-452): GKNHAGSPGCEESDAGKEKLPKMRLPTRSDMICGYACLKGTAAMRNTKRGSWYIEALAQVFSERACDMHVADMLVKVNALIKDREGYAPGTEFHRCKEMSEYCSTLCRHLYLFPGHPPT
# Assay: In vitro proteolysis assay: cleavage of candidate peptide substrates by N-His Ich-1 (reverse phase HPLC)
# Assay type: biochemical
# Conditions: 10 μM peptide, 30° C., pH 6.2, 60 minute reaction
# Text: To identify peptide substrates for Ich-1, candidate peptides were used in in vitro proteolysis assays with recombinant Ich-1 protein. Human Ich-1 enzyme (the nucleotide and amino acid sequences for which are disclosed in Wang, L., et al. (1994) Cell 78:739-750) was expressed recombinantly with an N-terminal polyhistidine tag by methods described in Kamens, J., et al. (1995) J. Biol. Chem. 270:15250-15256. The resulting enzyme, called N-His Ich-1, contains Ich-1 amino acid residues 167-435, with an initiator and polyhistidine tag fused to the amino terminus. The recombinant N-His Ich-1 protein was purified by metal chelating column chromatography as described in Porath, J. (1992) Protein Expression and Purification 3:263-281.
# Candidate peptide substrates were synthesized by standard solid phase methods and were purified to ≥95% by reverse-phase chromatography. Peptide identities were confirmed by mass spectrometry. Each peptide was acetylated at the amino-terminus and amidated at the carboxy-terminus. The amino acid sequence of each peptide included at least one Trp or Tyr residue. Stock solutions of each peptide were prepared in dimethylsulfoxide (DMSO) at approximately 10 mM. The precise concentration of each stock solution was determined in duplicate as described in Edelhoch, H. (1967) Biochemistry 6:1948-1954. Dilutions of each stock solution to 500 μM were prepared and stored at -20° C. prior to use in enzyme assays.
# To determine the substrate specificity of Ich-1, Vmax /Km values for various candidate peptide substrates were compared using experimental procedures modeled after those of Howard, A., et al. (1991) J. Immunol. 147:2964-2969. Enzyme reaction mixtures (810 μL) were prepared containing: 100 mM sodium acetate (pH 6.2), 20% (v/v) glycerol, 5 mM dithiothreitol, 0.5 mM EDTA and approximately 15 μg N-His Ich-1. These mixtures were capped and preincubated for 30 minutes at 30° C. Candidate peptide substrates were added from 500 μM DMSO stocks to give final concentrations of 10 μM peptide and 2% (v/v) DMSO. The reaction mixtures were then capped and incubation was continued at 30° C. At 10 minute intervals for 60 minutes beginning at t=0, aliquots of 110 μL were removed from each reaction mixture and added to vials containing 11 μL of a solution of 3 M HCl in water to stop the enzyme reaction. Samples were stored at room temperature prior to analysis.
# Samples were analyzed by reverse phase HPLC using a 250×4.6 mm C18 reverse phase column (Vydak, Hesperia, Calif.) and a linear gradient of MeCN--H2 O with 0.1% (v/v) TFA. The area under the substrate peaks (arbitrary units) was plotted vs. time of reaction for each substrate and fit into an equation of the form: [formula]
# wherein S0 is substrate peak area at time=0, St is substrate peak area at time=t, e is a constant approximately equal to 2.718, k is the first order rate constant formally equal to Vmax /Km and t is time. […] Alternatively, results can be expressed as percent substrate cleavage after a fixed time of reaction.
row,Compound,% Cleavage after 60 minute reaction [%]
1,"CC(=O)N[C@@H](CCCNC(=N)N)C(=O)NCC(=O)N[C@H](C(=O)N[C@@H](CC(=O)O)C(=O)N[C@@H](CCC(N)=O)C(=O)N[C@@H](CCC(N)=O)C(=O)N[C@@H](CC(=O)O)C(=O)NCC(=O)N[C@@H](CCCCN)C(=O)N[C@@H](CC(N)=O)C(=O)N[C@@H](Cc1c[nH]cn1)C(=O)N[C@@H](Cc1c[nH]c2ccccc12)C(N)=O)C(C)C [Peptide 1, acetyl-RGVDQQDGKNHW-amide] (Ac-RGVDQQDGKNHW-NH2)",80
2,"CC(=O)N[C@@H](CC(N)=O)C(=O)N[C@@H](CCC(=O)O)C(=O)N[C@@H](C)C(=O)N[C@@H](Cc1ccc(O)cc1)C(=O)N[C@H](C(=O)N[C@@H](Cc1c[nH]cn1)C(=O)N[C@@H](CC(=O)O)C(=O)N[C@@H](C)C(=O)N1CCC[C@H]1C(=O)N[C@H](C(=O)N[C@@H](CCCNC(=N)N)C(=O)N[C@@H](CO)C(=O)N[C@@H](CC(C)C)C(=O)N[C@@H](Cc1ccc(O)cc1)C(N)=O)C(C)C)C(C)C [Peptide 2, acetyl-NEAYVHDAPVRSLY-amide] (Ac-NEAYVHDAPVRSLY-NH2)",0
3,"CC(=O)N[C@@H](Cc1c[nH]c2ccccc12)C(=O)NCC(=O)N[C@@H](CC(=O)O)C(=O)N[C@@H](CCC(=O)O)C(=O)N[C@H](C(=O)N[C@@H](CC(=O)O)C(=O)NCC(=O)N[C@H](C(=O)N[C@@H](CC(=O)O)C(=O)N[C@@H](CCC(=O)O)C(=O)N[C@H](C(=O)N[C@@H](Cc1c[nH]c2ccccc12)C(N)=O)C(C)C)C(C)C)C(C)C [Peptide 3, acetyl-WGDEVDGVDEVW-amide] (Ac-WGDEVDGVDEVW-NH2)",0
4,"CC(=O)N[C@@H](Cc1c[nH]cn1)C(=O)N[C@@H](CO)C(=O)N[C@@H](CC(C)C)C(=O)N[C@@H](CC(=O)O)C(=O)N[C@@H](CC(N)=O)C(=O)N[C@@H](CCCCN)C(=O)N[C@@H](CC(=O)O)C(=O)NCC(=O)N1CCC[C@H]1C(=O)N[C@H](C(=O)N[C@@H](Cc1c[nH]c2ccccc12)C(N)=O)C(C)C [Peptide 4, acetyl-HSLDNKDGPVW-amide] (Ac-HSLDNKDGPVW-NH2)",0
5,"CSCC[C@H](NC(=O)[C@H](CC(=O)O)NC(=O)[C@H](CCC(=O)O)NC(=O)CNC(C)=O)C(=O)N[C@@H](CCC(N)=O)C(=O)N[C@@H](CC(=O)O)C(=O)N[C@@H](CC(N)=O)C(=O)N[C@@H](CO)C(=O)NCC(=O)N[C@H](C(=O)N[C@@H](Cc1ccc(O)cc1)C(=O)N[C@@H](Cc1c[nH]c2ccccc12)C(N)=O)[C@@H](C)O [Peptide 5, acetyl-GEDMQDNSGTYW-amide] (Ac-GEDMQDNSGTYW-NH2)",1
6,"CSCC[C@H](NC(=O)[C@H](CCC(N)=O)NC(=O)[C@H](CC(=O)O)NC(=O)[C@H](CO)NC(=O)[C@H](Cc1ccc(O)cc1)NC(C)=O)C(=O)N[C@@H](CC(=O)O)C(=O)NCC(=O)N[C@@H](Cc1ccccc1)C(=O)N[C@@H](Cc1c[nH]cn1)C(=O)N[C@@H](CC(=O)O)C(=O)N[C@@H](CO)C(=O)N[C@@H](Cc1c[nH]c2ccccc12)C(N)=O [Peptide 6, acetyl-YSDQMDGFHDSW-amide] (Ac-YSDQMDGFHDSW-NH2)",0
7,"CC[C@H](C)[C@H](NC(=O)CNC(=O)[C@H](CS)NC(C)=O)C(=O)N[C@@H](CCC(=O)O)C(=O)N[C@H](C(=O)N[C@@H](CC(=O)O)C(=O)N[C@@H](CO)C(=O)NCC(=O)N[C@H](C(=O)N[C@@H](CC(=O)O)C(=O)N[C@@H](CC(=O)O)C(=O)N[C@@H](Cc1c[nH]c2ccccc12)C(N)=O)C(C)C)[C@@H](C)O [Peptide 7, acetyl-CGIETDSGVDDW-amide] (Ac-CGIETDSGVDDW-NH2)",8

# Same assay, conditions: Tables 1-3
row,Compound,cleavage by N-His Ich-1 (in words)
1,"CC(=O)N[C@@H](CCCNC(=N)N)C(=O)NCC(=O)N[C@H](C(=O)N[C@@H](CC(=O)O)C(=O)N[C@@H](CCC(N)=O)C(=O)N[C@@H](CCC(N)=O)C(=O)N[C@@H](CC(=O)O)C(=O)NCC(=O)N[C@@H](CCCCN)C(=O)N[C@@H](CC(N)=O)C(=O)N[C@@H](Cc1c[nH]cn1)C(=O)N[C@@H](Cc1c[nH]c2ccccc12)C(N)=O)C(C)C [Peptide 1, acetyl-RGVDQQDGKNHW-amide] (Ac-RGVDQQDGKNHW-NH2)",cleaved at a rate significantly greater than the other tested peptides
2,"CC(=O)N[C@@H](CC(=O)O)C(=O)N[C@@H](CC(=O)O)C(=O)N[C@@H](CCC(N)=O)C(=O)N[C@@H](CCC(N)=O)C(=O)N[C@@H](CC(=O)O)C(=O)NCC(=O)N[C@@H](Cc1c[nH]c2ccccc12)C(N)=O [Peptide 21, acetyl-DDQQDGW-amide] (Ac-DDQQDGW-NH2)",weak cleavage
3,"CC(=O)N[C@H](C(=O)N[C@@H](CO)C(=O)N[C@@H](CCC(N)=O)C(=O)N[C@@H](CCC(N)=O)C(=O)N[C@@H](CC(=O)O)C(=O)NCC(=O)N[C@@H](Cc1c[nH]c2ccccc12)C(N)=O)C(C)C [Peptide 22, acetyl-VSQQDGW-amide] (Ac-VSQQDGW-NH2)","tolerated, but is cleaved at a substantially lower efficiency than P4 Asp"
4,"CC(=O)N[C@H](C(=O)N[C@@H](CCC(=O)O)C(=O)N[C@@H](CCC(N)=O)C(=O)N[C@@H](CCC(N)=O)C(=O)N[C@@H](CC(=O)O)C(=O)NCC(=O)N[C@@H](Cc1c[nH]c2ccccc12)C(N)=O)C(C)C [Peptide 23, acetyl-VEQQDGW-amide] (Ac-VEQQDGW-NH2)",not tolerated
5,"CC(=O)N[C@H](C(=O)N[C@@H](C)C(=O)N[C@@H](CCC(N)=O)C(=O)N[C@@H](CCC(N)=O)C(=O)N[C@@H](CC(=O)O)C(=O)NCC(=O)N[C@@H](Cc1c[nH]c2ccccc12)C(N)=O)C(C)C [Peptide 24, acetyl-VAQQDGW-amide] (Ac-VAQQDGW-NH2)",relatively poor cleavage
6,"CC(=O)N[C@H](C(=O)N[C@@H](CC(N)=O)C(=O)N[C@@H](CCC(N)=O)C(=O)N[C@@H](CCC(N)=O)C(=O)N[C@@H](CC(=O)O)C(=O)NCC(=O)N[C@@H](Cc1c[nH]c2ccccc12)C(N)=O)C(C)C [Peptide 25, acetyl-VNQQDGW-amide] (Ac-VNQQDGW-NH2)",not tolerated
7,"CC(=O)N[C@H](C(=O)N[C@@H](CC(=O)O)C(=O)N[C@@H](CCC(N)=O)C(=O)N[C@@H](Cc1ccc(O)cc1)C(=O)N[C@@H](CC(=O)O)C(=O)NCC(=O)N[C@@H](Cc1c[nH]c2ccccc12)C(N)=O)C(C)C [Peptide 40, acetyl-VDQYDGW-amide] (Ac-VDQYDGW-NH2)",poorly cleaved compared to the most preferred peptides
8,"CC(=O)N[C@H](C(=O)N[C@@H](CC(=O)O)C(=O)N[C@@H](CCC(N)=O)C(=O)N[C@@H](CCC(=O)O)C(=O)N[C@@H](CC(=O)O)C(=O)NCC(=O)N[C@@H](Cc1c[nH]c2ccccc12)C(N)=O)C(C)C [Peptide 41, acetyl-VDQEDGW-amide] (Ac-VDQEDGW-NH2)",poorly cleaved compared to the most preferred peptides
9,"CC(=O)N[C@H](C(=O)N[C@@H](CC(=O)O)C(=O)N[C@@H](CCC(N)=O)C(=O)N[C@@H](CCC(N)=O)C(=O)N[C@@H](CCC(=O)O)C(=O)NCC(=O)N[C@@H](Cc1c[nH]c2ccccc12)C(N)=O)C(C)C [Peptide 42, acetyl-VDQQEGW-amide] (Ac-VDQQEGW-NH2)",modest cleavage

# Tested on: N-His Ich-1
# Assay: 100 mM sodium acetate (pH 6.2), 20% (v/v) glycerol, 5 mM dithiothreitol, 0.5 mM EDTA and approximately 15 μg N-His Ich-1
# Conditions: Human, 30° C., up to 60 minutes
Compound,not cleaved,cleaved bond
Ac-GEDMQDNSGTYW-NH2,1% cleavage after 60 minute reaction,
Ac-HSLDNKDGPVW-NH2,0% cleavage after 60 minute reaction,
Ac-NEAYVHDAPVRSLY-NH2,0% cleavage after 60 minute reaction,
Ac-RGVDQQDGKNHW-NH2,,Asp7-Gly
Ac-WGDEVDGVDEVW-NH2,0% cleavage after 60 minute reaction,
Ac-YSDQMDGFHDSW-NH2,0% cleavage after 60 minute reaction,
